# Laboratory results as given in patent US20250057910A1, “Application of Polypeptide in Preparation of Product for Preventing or Treating Skin Injury Diseases” (Sichuan Gooddoctor Panxi Pharmaceutical Co., Ltd., priority 2021, published 2025).
# Ends that are not written are not given here.
# Columns and labels:
# SD rats = test: Healing of acute mechanical skin injuries in rats; assay type: in vivo, rat; details: for Wound healing rate: rats, acute mechanical injury, topical once a day, polypeptide 8 μg/cm^2, GeneTime 40 IU/cm^2, Mean ± SD, n = 6
# Protocol: Experimental animals: SD male rats, SPF grade, 6 weeks old, weighing 180-220 g, from Beijing Vital River Laboratory Animal Technology Co., Ltd.; animal license number: SCXK (Beijing) 2016-0006; and certification number: NO.110011210104746538.
# Experimental method: SPF grade SD rats were housed in clean and sterilized cages, and were given water and feeds and padding replacement at regular intervals every day. The cultivation was kept at a temperature of 20-26° C. with a humidity of 40%-70%. The rats were kept for one week to adapt to the environment. According to the random grouping method, the animals were divided into 3 groups: model control group (normal saline), GeneTime group (40 IU/cm^2, recombinant human epidermal growth factor topical solution, from Shenzhen Watsin Genetech Ltd.), and subject polypeptide group (8 μg/cm^2), with 6 animals in each group. After the rats were successfully anesthetized by intraperitoneal injection of 3% pentobarbital sodium, the hair at 1 cm from the expected wound edge was cut off, the expected wound area was first disinfected with iodophor, then locally disinfected with 75% alcohol, and a round full layer of skin wound with a diameter of 1.5 cm was made at the middle of the ear line down to 4 cm below the back, near the cervical side, with the spine as the middle line, as deep as the muscular layer. The same sized rubber ring was used to fix the surrounding skin to form an animal model of acute mechanical injury. After modeling, the rats' wounds were exposed to the environment and fed in individual cages. Upon changing dressings, debridement was first performed with iodophor, and then the wound was washed with a sterile normal saline and wiped to dryness. Rats in each group were given 40 μL of corresponding drug solution by locally applying to the wound once a day periodically. On Days 0, 3, 7, 10 and 14 of administration, the wounds of each group of rats were photographed, the areas of the wounds were calculated with image analysis software (Image J), and the wound healing rates were calculated according to the formula.
# [1] = system: Transgenic zebrafish with vascular green fluorescence; test: Angiogenesis in zebrafish with simvastatin-induced microvessel deficiency; assay type: in vivo; details: intravenous injection 12.5, 25.0 and 50.0 mg/mL, 10 nL, 2 days, vs model control
# Protocol: Experimental animals: Transgenic zebrafish with vascular green fluorescence, raised in water for culturing fish at 28° C. (water quality: 200 mg of instant dissolving sea salt being added to every 1 L of water made by reverse osmosis, with a conductivity of 450-550 μS/cm, a pH of 6.5-8.5 and a hardness of 50-100 mg/L CaCO3), at the age of 1 day post fertilization (1 dpf). The animals were provided by the fish breeding center of Hangzhou Hunter Biotechnology Co., Ltd. with the experimental animal use license number of SYXK (Zhejiang) 2012-0171, and the breeding management complied with the requirements of international AAALAC certification (certification number: 001458).
# Experimental method: 1 dpf transgenic zebrafish with vascular green fluorescence were randomly selected and placed in a 6-well plate, with 30 fish per well (per experimental group). […] Treatment was performed at 28° C. for 2 days, 10 zebrafish were randomly selected in each experimental group and placed under a fluorescence microscope to take photos, the data were analyzed and collected using NIS-Elements D 3.20 advanced image processing software, the subintestinal vascular area and the number of subintestinal vascular branches were analyzed, and the statistical analysis results of these indexes were used to evaluate the efficacy of the samples of promoting angiogenesis.
# [2] = system: STZ-induced diabetic rats; test: Healing of skin ulcer in streptozotocin (STZ)-induced diabetic rats; assay type: in vivo, rat; details: for Wound healing rates of diabetic rats: Mean ± SD, n = 15
# Protocol: Experimental animals: After SPF grade male healthy SD rats (weighing 180-200 g) were fed with high-fat and high-sugar diet for 2 weeks and fasted for 6 hours, each rat was rapidly injected with an STZ solution (50 mg kg^−1) intraperitoneally at one time, and 48 hours later, the random blood glucose values were >16.7 mmol/L twice, indicating the successful establishment of type II diabetic rat model. Experimental animals were purchased from Beijing Vital River Laboratory Animal Technology Co., Ltd., with the experimental animal quality certification number of SCXK (Beijing) 2017-0033, and the experimental animal use license number of SCXK (Beijing) 2017-0033.
# Experimental method: 90 diabetic rats were selected and randomly divided into 6 groups with 15 rats in each group, namely, model control group (normal saline), high-dose polypeptide group (30 μg/cm^2), medium-dose polypeptide group (10 μg/cm^2), and low-dose polypeptide group (3 μg/cm^2), GeneTime group (40 IU/cm^2, recombinant human epidermal growth factor topical solution, from Shenzhen Watsin Genetech Ltd.), and Kangfuxin Ye group (36 μL/cm^2, Kangfuxinye, from SICHUAN GOODDOCTOR PANXI PHARMACEUTICAL CO., LTD.). After each experimental rat was anesthetized by intraperitoneal injection of 2% pentobarbital sodium (0.2 mL/100 g), a 2 cm^2 full-layer skin defect wound was prepared at each of both sides of the back spine, and a rubber ring with a diameter of 2.3 cm was stitched at the outer edge of the wound. After hemostasis of the wound, local drug therapy at the wound was carried out by group. Except that the Kangfuxin Ye group was administered 2 times/day, other groups were administered once a day, with a dosed volume of 72 μL/wound each time, for 14 consecutive days. After the administration, the wound was covered with a sterile vaseline gauze (5 cm*5 cm), and bandaged with multi-layer sterile gauzes. After the wound surgery, the wound was photographed, and the wound area was recorded as the baseline value (the wound was recorded as Day0). During the administration period, the wound areas were photographed and measured 3 times a week, and the granulation tissue growth and healing of wound in each group were observed every day.
sequence,measurement,setting,value
PAAEPVPL [polypeptide],Wound healing rate,SD rats; Day 0 (baseline),0.00 ± 0.00%
same,Wound healing rate,SD rats; Day 3,−23.77 ± 6.16%
same,Wound healing rate,SD rats; Day 7,−10.78 ± 7.90%
same,Wound healing rate,SD rats; Day 10,18.90 ± 17.63%
same,Wound healing after mechanical skin injury in rats (statement in words),"SD rats; Day 14, 8 μg/cm^2, vs model control",significant promotion of wound healing
same,Wound healing rate,SD rats; Day 14,88.42 ± 4.57 %
same,Subintestinal vascular area (area of regenerated blood vessels),[1]; FIG. 6,significantly promote the increase of the subintestinal vascular area
same,Number of subintestinal vascular branches,[1]; FIG. 7,the increase of the number of subintestinal vascular branches
same,Formation rate of new granulation tissues,"[2]; 3rd day after injury, low-, medium- and high-dose (3, 10, 30 μg/cm^2), vs model control, FIG. 8",promoted the growth rate of new granulation tissue compared to the model control group with significant differences
same,Wound healing rates of diabetic rats,"[2]; Day 0 (baseline), high-dose 30 μg/cm^2, topical once a day",0.00 ± 0.00%
same,Wound healing rates of diabetic rats,"[2]; Day 0 (baseline), low-dose 3 μg/cm^2, topical once a day",0.00 ± 0.00%
same,Wound healing rates of diabetic rats,"[2]; Day 0 (baseline), medium-dose 10 μg/cm^2, topical once a day",0.00 ± 0.00%
same,Wound healing rates of diabetic rats,"[2]; Day 3, high-dose 30 μg/cm^2, topical once a day",6.82 ± 19.81%
same,Wound healing rates of diabetic rats,"[2]; Day 3, low-dose 3 μg/cm^2, topical once a day",3.05 ± 8.10%
same,Wound healing rates of diabetic rats,"[2]; Day 3, medium-dose 10 μg/cm^2, topical once a day",5.04 ± 9.31%
same,Wound healing rates of diabetic rats,"[2]; Day 7, high-dose 30 μg/cm^2, topical once a day",62.62 ± 12.24%
same,Wound healing rates of diabetic rats,"[2]; Day 7, low-dose 3 μg/cm^2, topical once a day",54.67 ± 18.10%
same,Wound healing rates of diabetic rats,"[2]; Day 7, medium-dose 10 μg/cm^2, topical once a day",57.57 ± 10.49%
same,Wound healing rates of diabetic rats,"[2]; Day 10, high-dose 30 μg/cm^2, topical once a day",88.49 ± 5.17 %
same,Wound healing rates of diabetic rats,"[2]; Day 10, low-dose 3 μg/cm^2, topical once a day",84.05 ± 10.21%
same,Wound healing rates of diabetic rats,"[2]; Day 10, medium-dose 10 μg/cm^2, topical once a day",84.26 ± 9.10%
same,Wound healing rates of diabetic rats,"[2]; Day 12, high-dose 30 μg/cm^2, topical once a day",98.39 ± 2.39%
same,Wound healing rates of diabetic rats,"[2]; Day 12, low-dose 3 μg/cm^2, topical once a day",95.92 ± 5.82%
same,Wound healing rates of diabetic rats,"[2]; Day 12, medium-dose 10 μg/cm^2, topical once a day",97.77 ± 3.71%
same,Wound healing rates of diabetic rats,"[2]; Day 14, high-dose 30 μg/cm^2, topical once a day",99.85 ± 0.77%
same,Wound healing rates of diabetic rats,"[2]; Day 14, low-dose 3 μg/cm^2, topical once a day",99.46 ± 1.46%
same,Wound healing rates of diabetic rats,"[2]; Day 14, medium-dose 10 μg/cm^2, topical once a day",99.85 ± 0.84%
same,Wound healing in diabetic rats (statement in words),"[2]; high-dose 30 μg/cm^2, vs model control, Day 10",significant healing promoting effect
same,Wound healing in diabetic rats (statement in words),"[2]; low and medium doses (3 and 10 μg/cm^2), Day 10, vs model control",tendency to promote the wound healing
